# Test results: patent US9439432B2, “Phenylisoxazoline-based compound having herbicidal activity and use thereof” (MOGHU RESEARCH CENTER LTD, priority 2011, dated 2016)
# Experiments:
# Type in all cases: in vivo
# Corn [1] = experiment: Pre-emergence treatment, phytotoxicity to corn; conditions: 500 g/ha, 4 weeks after spraying, scale 0 to 10 (0: no effects, 10: complete death)
# Procedure: (§1) A rectangular plastic pot having a surface area of 300 cm^2 was filled with sandy loam soil and mixed bed soil which were mixed at a ratio of 1:1, and then, barnyardrass (Echinochloa crusgalli), large crabgrass (Digitaria sanguinalis), blackgrass (Alopecurus myosuroides), and annual bluegrass (Poa annua), which are grass weeds, were seeded thereto. In a pot that was prepared as described above, seeds of corn, soybean, cotton, wheat, and rice were seeded. The pots were irrigated, and one day after, chemicals were sprayed thereto. The spraying was performed by using a track sprayer (R&D Sprayer, USA) equipped with a Teejet 8002 (Spraying Systems Co., USA) nozzle, and a spraying amount was adjusted at 300 L/ha. A spraying solution was prepared by dissolving test materials or references in acetone and adding the same amount of 0.2%(v/v) tween 20 aqueous solution thereto. Application rates were 500, 250, 125, and 62.5 g/ha. The pots were placed in a greenhouse in which during day, the temperature was maintained at a temperature of 25 to 30° C., and during night, the temperature was maintained at a temperature of 15 to 25° C., and the pots were periodically irrigated. Four weeks after the spraying the test materials or References, effects and phytotoxicity of the respective weeds and crops were evaluated in a scale of 0 to 10 (0: no effects, 10: complete death), and results thereof are shown in Table 4 below.
# Soybean [2] = experiment: Pre-emergence treatment, phytotoxicity to soybean; conditions: 500 g/ha, 4 weeks after spraying, scale 0 to 10 (0: no effects, 10: complete death)
# Procedure: as §1
# Cotton [3] = experiment: Pre-emergence treatment, phytotoxicity to cotton; conditions: 500 g/ha, 4 weeks after spraying, scale 0 to 10 (0: no effects, 10: complete death)
# Procedure: as §1
# Wheat [4] = experiment: Pre-emergence treatment, phytotoxicity to wheat; conditions: 500 g/ha, 4 weeks after spraying, scale 0 to 10 (0: no effects, 10: complete death)
# Procedure: as §1
# Rice [5] = experiment: Pre-emergence treatment, phytotoxicity to rice; conditions: 500 g/ha, 4 weeks after spraying, scale 0 to 10 (0: no effects, 10: complete death)
# Procedure: as §1
# Echinochloa crusgalli [6] = experiment: Pre-emergence treatment, herbicidal efficacy on barnyardgrass; conditions: 4 weeks after spraying
# Procedure: as §1
# Digitaria sanguinalis [7] = experiment: Pre-emergence treatment, herbicidal efficacy on large crabgrass; conditions: 4 weeks after spraying, scale 0 to 10
# Procedure: as §1
# Poa annua [8] = experiment: Pre-emergence treatment, herbicidal efficacy on annual bluegrass; conditions: 4 weeks after spraying, scale 0 to 10
# Procedure: as §1
# Alopecurus myosuroides [9] = experiment: Pre-emergence treatment, herbicidal efficacy on blackgrass; conditions: 4 weeks after spraying, scale 0 to 10
# Procedure: as §1
# Corn [10] = experiment: Post-emergence treatment, phytotoxicity to corn; conditions: post-emergence (about 3 leaf stage), 1,000 g/ha, 4 weeks after spraying, scale 0 to 10 (0: no effects, 10: complete death)
# Procedure: as §1
# (§2) Pots containing crops and weeds were prepared in the same manner as in Example 7, and then, in the second week in which crops and weeds entered into about 3 leaf stage, the test materials and the references were sprayed thereto in the same manner as described above. The rates were 1,000, 500, 250, and 125 g/ha. Four weeks after the spraying of the test materials or the references, herbicidal efficacy and phytotoxicity to the respective weeds and crops were evaluated in a scale of 0 to 10 (0: no effects, 10: complete death).
# Soybean [11] = experiment: Post-emergence treatment, phytotoxicity to soybean; conditions: post-emergence (about 3 leaf stage), 1,000 g/ha, 4 weeks after spraying, scale 0 to 10 (0: no effects, 10: complete death)
# Procedure: as §1, §2
# Cotton [12] = experiment: Post-emergence treatment, phytotoxicity to cotton; conditions: post-emergence (about 3 leaf stage), 1,000 g/ha, 4 weeks after spraying, scale 0 to 10 (0: no effects, 10: complete death)
# Procedure: as §1, §2
# Wheat [13] = experiment: Post-emergence treatment, phytotoxicity to wheat; conditions: post-emergence (about 3 leaf stage), 1,000 g/ha, 4 weeks after spraying, scale 0 to 10 (0: no effects, 10: complete death)
# Procedure: as §1, §2
# Rice [14] = experiment: Post-emergence treatment, phytotoxicity to rice; conditions: post-emergence (about 3 leaf stage), 1,000 g/ha, 4 weeks after spraying, scale 0 to 10 (0: no effects, 10: complete death)
# Procedure: as §1, §2
# Echinochloa crusgalli [15] = experiment: Post-emergence treatment, herbicidal efficacy on barnyardgrass; conditions: 4 weeks after spraying, scale 0 to 10
# Procedure: as §1, §2
# Digitaria sanguinalis [16] = experiment: Post-emergence treatment, herbicidal efficacy on large crabgrass; conditions: 4 weeks after spraying, scale 0 to 10
# Procedure: as §1, §2
# Poa annua [17] = experiment: Post-emergence treatment, herbicidal efficacy on annual bluegrass; conditions: 4 weeks after spraying, scale 0 to 10
# Procedure: as §1, §2
# Alopecurus myosuroides [18] = experiment: Post-emergence treatment, herbicidal efficacy on blackgrass; conditions: 4 weeks after spraying, scale 0 to 10
# Procedure: as §1, §2
# [19] = 500 g/ha, scale 0 to 10 (0: no effects, 10: complete death)
compound,measurement,setting,value
Cc1ccccc1C1=NOC(C)(COCc2ccccc2F)C1 (stereo not drawn) [Reference D],"Phytotoxicity, Corn",Corn [1],0
same,"Phytotoxicity, Soybean",Soybean [2],0
same,"Phytotoxicity, Cotton",Cotton [3],0
same,"Phytotoxicity, Wheat",Wheat [4],0
same,"Phytotoxicity, Rice",Rice [5],0
same,"Herbicidal efficacy, Echinochloa crusgalli","Echinochloa crusgalli [6]; 62.5 g/ha, scale 0 to 10",1
same,"Herbicidal efficacy, Echinochloa crusgalli","Echinochloa crusgalli [6]; 125 g/ha, scale 0 to 10",3
same,"Herbicidal efficacy, Echinochloa crusgalli","Echinochloa crusgalli [6]; 250 g/ha, scale 0 to 10",6
same,"Herbicidal efficacy, Echinochloa crusgalli",Echinochloa crusgalli [6]; [19],10
same,"Herbicidal efficacy, Digitaria sanguinalis",Digitaria sanguinalis [7]; 62.5 g/ha,0
same,"Herbicidal efficacy, Digitaria sanguinalis",Digitaria sanguinalis [7]; 125 g/ha,2
same,"Herbicidal efficacy, Digitaria sanguinalis",Digitaria sanguinalis [7]; 250 g/ha,6
same,"Herbicidal efficacy, Digitaria sanguinalis",Digitaria sanguinalis [7]; 500 g/ha,10
same,"Herbicidal efficacy, Poa annua",Poa annua [8]; 62.5 g/ha,0
same,"Herbicidal efficacy, Poa annua",Poa annua [8]; 125 g/ha,2
same,"Herbicidal efficacy, Poa annua",Poa annua [8]; 250 g/ha,5
same,"Herbicidal efficacy, Poa annua",Poa annua [8]; 500 g/ha,8
same,"Herbicidal efficacy, Alopecurus myosuroides",Alopecurus myosuroides [9]; 62.5 g/ha,0
same,"Herbicidal efficacy, Alopecurus myosuroides",Alopecurus myosuroides [9]; 125 g/ha,0
same,"Herbicidal efficacy, Alopecurus myosuroides",Alopecurus myosuroides [9]; 250 g/ha,3
same,"Herbicidal efficacy, Alopecurus myosuroides",Alopecurus myosuroides [9]; 500 g/ha,9
same,"Phytotoxicity, Corn",Corn [10],0
same,"Phytotoxicity, Soybean",Soybean [11],0
same,"Phytotoxicity, Cotton",Cotton [12],0
same,"Phytotoxicity, Wheat",Wheat [13],0
same,"Phytotoxicity, Rice",Rice [14],0
same,"Herbicidal efficacy, Echinochloa crusgalli","Echinochloa crusgalli [15]; post-emergence, 125 g/ha",0
same,"Herbicidal efficacy, Echinochloa crusgalli","Echinochloa crusgalli [15]; post-emergence, 250 g/ha",0
same,"Herbicidal efficacy, Echinochloa crusgalli","Echinochloa crusgalli [15]; post-emergence, 500 g/ha",1
same,"Herbicidal efficacy, Echinochloa crusgalli","Echinochloa crusgalli [15]; post-emergence, 1,000 g/ha",4
same,"Herbicidal efficacy, Digitaria sanguinalis","Digitaria sanguinalis [16]; post-emergence, 125 g/ha",0
same,"Herbicidal efficacy, Digitaria sanguinalis","Digitaria sanguinalis [16]; post-emergence, 250 g/ha",0
same,"Herbicidal efficacy, Digitaria sanguinalis","Digitaria sanguinalis [16]; post-emergence, 500 g/ha",4
same,"Herbicidal efficacy, Digitaria sanguinalis","Digitaria sanguinalis [16]; post-emergence, 1,000 g/ha",7
same,"Herbicidal efficacy, Poa annua","Poa annua [17]; post-emergence, 125 g/ha",0
same,"Herbicidal efficacy, Poa annua","Poa annua [17]; post-emergence, 250 g/ha",0
same,"Herbicidal efficacy, Poa annua","Poa annua [17]; post-emergence, 500 g/ha",2
same,"Herbicidal efficacy, Poa annua","Poa annua [17]; post-emergence, 1,000 g/ha",5
same,"Herbicidal efficacy, Alopecurus myosuroides","Alopecurus myosuroides [18]; post-emergence, 125 g/ha",0
same,"Herbicidal efficacy, Alopecurus myosuroides","Alopecurus myosuroides [18]; post-emergence, 250 g/ha",0
same,"Herbicidal efficacy, Alopecurus myosuroides","Alopecurus myosuroides [18]; post-emergence, 500 g/ha",3
same,"Herbicidal efficacy, Alopecurus myosuroides","Alopecurus myosuroides [18]; post-emergence, 1,000 g/ha",4
Cc1ccccc1C1=NOC(C)(COCc2c(F)cccc2Cl)C1 (stereo not drawn) [Reference E],"Phytotoxicity, Corn",Corn [1],0
same,"Phytotoxicity, Soybean",Soybean [2],0
same,"Phytotoxicity, Cotton",Cotton [3],0
same,"Phytotoxicity, Wheat",Wheat [4],0
same,"Phytotoxicity, Rice",Rice [5],0
same,"Herbicidal efficacy, Echinochloa crusgalli","Echinochloa crusgalli [6]; 62.5 g/ha, scale 0 to 10",2
same,"Herbicidal efficacy, Echinochloa crusgalli","Echinochloa crusgalli [6]; 125 g/ha, scale 0 to 10",5
same,"Herbicidal efficacy, Echinochloa crusgalli","Echinochloa crusgalli [6]; 250 g/ha, scale 0 to 10",8
same,"Herbicidal efficacy, Echinochloa crusgalli",Echinochloa crusgalli [6]; [19],10
same,"Herbicidal efficacy, Digitaria sanguinalis",Digitaria sanguinalis [7]; 62.5 g/ha,0
same,"Herbicidal efficacy, Digitaria sanguinalis",Digitaria sanguinalis [7]; 125 g/ha,5
same,"Herbicidal efficacy, Digitaria sanguinalis",Digitaria sanguinalis [7]; 250 g/ha,9
same,"Herbicidal efficacy, Digitaria sanguinalis",Digitaria sanguinalis [7]; 500 g/ha,10
same,"Herbicidal efficacy, Poa annua",Poa annua [8]; 62.5 g/ha,2
same,"Herbicidal efficacy, Poa annua",Poa annua [8]; 125 g/ha,5
same,"Herbicidal efficacy, Poa annua",Poa annua [8]; 250 g/ha,9
same,"Herbicidal efficacy, Poa annua",Poa annua [8]; 500 g/ha,10
same,"Herbicidal efficacy, Alopecurus myosuroides",Alopecurus myosuroides [9]; 62.5 g/ha,0
same,"Herbicidal efficacy, Alopecurus myosuroides",Alopecurus myosuroides [9]; 125 g/ha,0
same,"Herbicidal efficacy, Alopecurus myosuroides",Alopecurus myosuroides [9]; 250 g/ha,4
same,"Herbicidal efficacy, Alopecurus myosuroides",Alopecurus myosuroides [9]; 500 g/ha,9
same,"Phytotoxicity, Corn",Corn [10],3
same,"Phytotoxicity, Soybean",Soybean [11],1
same,"Phytotoxicity, Cotton",Cotton [12],3
same,"Phytotoxicity, Wheat",Wheat [13],0
same,"Phytotoxicity, Rice",Rice [14],0
same,"Herbicidal efficacy, Echinochloa crusgalli","Echinochloa crusgalli [15]; post-emergence, 125 g/ha",0
same,"Herbicidal efficacy, Echinochloa crusgalli","Echinochloa crusgalli [15]; post-emergence, 250 g/ha",2
same,"Herbicidal efficacy, Echinochloa crusgalli","Echinochloa crusgalli [15]; post-emergence, 500 g/ha",5
same,"Herbicidal efficacy, Echinochloa crusgalli","Echinochloa crusgalli [15]; post-emergence, 1,000 g/ha",6
same,"Herbicidal efficacy, Digitaria sanguinalis","Digitaria sanguinalis [16]; post-emergence, 125 g/ha",0
same,"Herbicidal efficacy, Digitaria sanguinalis","Digitaria sanguinalis [16]; post-emergence, 250 g/ha",1
same,"Herbicidal efficacy, Digitaria sanguinalis","Digitaria sanguinalis [16]; post-emergence, 500 g/ha",6
same,"Herbicidal efficacy, Digitaria sanguinalis","Digitaria sanguinalis [16]; post-emergence, 1,000 g/ha",7
same,"Herbicidal efficacy, Poa annua","Poa annua [17]; post-emergence, 125 g/ha",0
same,"Herbicidal efficacy, Poa annua","Poa annua [17]; post-emergence, 250 g/ha",2
same,"Herbicidal efficacy, Poa annua","Poa annua [17]; post-emergence, 500 g/ha",6
same,"Herbicidal efficacy, Poa annua","Poa annua [17]; post-emergence, 1,000 g/ha",7
same,"Herbicidal efficacy, Alopecurus myosuroides","Alopecurus myosuroides [18]; post-emergence, 125 g/ha",0
same,"Herbicidal efficacy, Alopecurus myosuroides","Alopecurus myosuroides [18]; post-emergence, 250 g/ha",0
same,"Herbicidal efficacy, Alopecurus myosuroides","Alopecurus myosuroides [18]; post-emergence, 500 g/ha",2
same,"Herbicidal efficacy, Alopecurus myosuroides","Alopecurus myosuroides [18]; post-emergence, 1,000 g/ha",4
